Measured values reported in patent US12201626B2, “Bifunctional compositions for the treatment of cancer” (ARMACEUTICA, INC., priority 2018, dated 2025).
Read-outs that look alike come from different tables or passages of the source.

Assays:
[1] = system: malignancy that was metastatic or unresectable; assay: Open-label dose-escalating study of oral PND in terminally-ill human cancer patients
Procedure: An open-label, dose-escalating study was conducted to assess the longevity and safety of oral pyronaridine tetraphosphate (PND) in five terminally-ill human patients with selected cancers. […] Exclusion criteria included active clinically significant infection, uncontrolled intercurrent illness, neutropenia, and pregnancy.
The PND was obtained from Mangalam Drugs and Organics, Ltd, and the powered PND was encapsulated in size “00” gelatin capsules for oral administration.
Patient were instructed to escalate his or her dose if there was no unacceptable toxicity. […] Study Arm 2 started with a daily dose of 200 mg for 2 weeks, then 400 mg for 2 weeks, then 600 mg onwards. Due to ethical concerns of treating terminally-ill patients, there was no placebo group.
The primary outcomes assessed was the difference between the patient's expected survival length estimated at the time of study entry (estimated at 2-4 weeks for each patient) and his or her actual survival length. The secondary outcomes were malignancy-associated symptom relief, anti-tumor activity, safety, and tolerability of PND.

CEM cell line = assay: Differential Nuclear Staining (DNS) cytotoxicity assay; format: cell-based, human
Text: In this study, 19 human cell lines were utilized: seven breast human cancer; MDA-MB-468, MCF-7, T47D, HCC1419, HCC70, MDA-MB-231 (triple negative) and its lung metastatic (LM) derivative MDA-MB-231 LM2; four human leukemia/lymphoma cells, HL-60, Ramos, Jurkat and CEM, three human ovarian cancer, Ovcar 8, Ovcar 5 and Ovcar 3, one lung cancer, one melanoma and one pancreatic cell line, A549, A375, Panc-1 respectively. Furthermore, for selectivity/comparative purposes, the cell lines from the non-cancerous origin, MCF-10A, HS-27 were also included. […] The adherent cells, growing in the logarithmic growth phase at a 60-75% confluence, were detached by utilizing a HyQtase enzyme (Thermo Fisher Scientific Inc.), counted and seeded in 96-well plates at 10,000 cells density in 100 μL of culture medium per well. […]
To analyze the potential cytotoxic activity of PND, the Differential Nuclear Staining (DNS) assay, which was validated for high-throughput screening (HTS) using live-cell bio-imaging was utilized. […] Montages of 2 by 2 images were captured directly from each individual well of the culture plates by using a multi-well plate reader IN Cell 2000 analyzer, an HTS and high-content analysis (HCA) system (GE Healthcare Life Sciences, Pittsburgh, PA). […] Each experimental data point, as well as controls, were assessed in triplicates. […]

HL-60 cells [2] = assay: Mitochondrial membrane potential, JC-1 flow cytometry; format: cell-based, human; conditions: 6 h; vs untreated and solvent treated cells
Procedure: (§1) After treatment, the cells were harvested and stained with 2 μM of the fluorophore 5,5′,6,6′-tetrachloro-1,1′,3,3′-tetraethylbenzimidazolylcarbocyanine iodide (JC-1) following manufacturer's instructions (MitoProbe; Life Technologies, Grand Island, NY, USA). Cells with healthy polarized mitochondria favour JC-1 to form aggregates, which emit a red signal. […] Similar controls as above were concurrently analysed. Data acquisition and analysis were achieved by using CXP software (Beckman Coulter). Each data point was analysed in triplicate.

MDA-MB-231 cells [3] = assay: as above; format: cell-based, human; conditions: 6 h; vs untreated and solvent treated cells
Procedure: as §1

HL-60 cells [4] = assay: Differential Nuclear Staining (DNS) cytotoxicity assay; format: cell-based
Text: (§2) In this study, 19 human cell lines were utilized: seven breast human cancer; MDA-MB-468, MCF-7, T47D, HCC1419, HCC70, MDA-MB-231 (triple negative) and its lung metastatic (LM) derivative MDA-MB-231 LM2; four human leukemia/lymphoma cells, HL-60, Ramos, Jurkat and CEM, three human ovarian cancer, Ovcar 8, Ovcar 5 and Ovcar 3, one lung cancer, one melanoma and one pancreatic cell line, A549, A375, Panc-1 respectively. Furthermore, for selectivity/comparative purposes, the cell lines from the non-cancerous origin, MCF-10A, HS-27 were also included. The culture media used for MDA-MB-231, MDA-MB-231 LM2, MDA-MB-468, MCF-7, A549, A375, Panc-1, and HS-27 was DMEM (Hyclone, Logan UT), whereas for T47D, HCC-1419, HCC-70, HL-60, Ramos, Jurkat, CEM, Ovcar 8 and Ovcar 5 was RPMI-1640 (Hyclone, Logan UT). Consistently, both DMEM and RPMI culture media was supplemented with 10% heat-inactivated fetal bovine serum (FBS: Hyclone), 100 U/ml penicillin and 100 μg/ml streptomycin (Thermo Fisher Scientific Inc., Rockford, IL). The MCF-10A cells were grown in DMEM/F12 supplemented with 10% FBS, 10 μg/ml recombinant human insulin (Sigma), 0.5 μg/ml hydrocortisone (Sigma), 20 ng/ml epidermal growth factor, 2.5 mM L-glutamine, 100 U/ml penicillin, and 100 μg/ml streptomycin. Also, a slight modification of the culture media to the HL-60 and Ovcar 3 cell lines was that 20% of FBS was added to the media (ATCC, Manassas, VA, USA). In addition, Ovcar 3 cells required 10 μg/ml recombinant human insulin (Sigma). The adherent cells, growing in the logarithmic growth phase at a 60-75% confluence, were detached by utilizing a HyQtase enzyme (Thermo Fisher Scientific Inc.), counted and seeded in 96-well plates at 10,000 cells density in 100 μL of culture medium per well. Cells growing in suspension were processed similarly as described above except for the addition of HyQtase. Typically, the incubation conditions of all the cells were at 37° C. in a 5% CO2 humidified atmosphere.
(§3) To analyze the potential cytotoxic activity of PND, the Differential Nuclear Staining (DNS) assay, which was validated for high-throughput screening (HTS) using live-cell bio-imaging was utilized. For this assay, cells were seeded at 10,000 cells/well density in a 96-well plate in 100 μl of culture media, incubated overnight, and treated with a gradient of PND concentrations for 72 h. Two hours before imaging, two fluorescent nucleic acid intercalators were added to each well, Hoechst 33342 and propidium iodide (PI; Invitrogen); at a final concentration of 1 μg/ml each. Due to its high permeability, Hoechst stains all of the cells (total dead and alive), whereas PI only stains dead or dying cells. Montages of 2 by 2 images were captured directly from each individual well of the culture plates by using a multi-well plate reader IN Cell 2000 analyzer, an HTS and high-content analysis (HCA) system (GE Healthcare Life Sciences, Pittsburgh, PA). The following controls were included in every single plate: PBS as solvent/vehicle control, hydrogen peroxide as a positive control for cytotoxicity, and untreated cells to determine the background of toxicity due to cell manipulation and intrinsic factors usually associated with the culture protocol. Each experimental data point, as well as controls, were assessed in triplicates. Cytotoxic concentration 50% (CC50) values were calculated based on a linear interpolation equation. CC50 is defined as the PND concentration required to disrupt the plasma membrane integrity of 50% of the cell population, as compared with solvent-treated cells.
(§4) The selective cytotoxicity index (SCI) denotes the capability of a given experimental compound to kill cancer cells more efficiently while inflicting minimal toxicity to non-cancerous origin cells. Thus, the SCI for PND was calculated as follow: SCI=CC50 of non-cancerous cells/CC50 of cancer cells.

MDA-MB-231 cells [5] = assay: as above; format: cell-based
Text: as §2, §3, §4

[6] = as above; format: cell-based; conditions: human; for selectivity ratio at 72 h: read-out: selective cytotoxicity index (SCI)
Text: as §2, §3, §4

## COC1=CC=C2Nc3cc(Cl)ccc3C(N=C3C=C(CN4CCCC4)C(=O)C(CN4CCCC4)=C3)=C2N1 [PND, 4-[(7-chloro-2-methoxy-1,5-dihydrobenzo[b][1,5]naphthyridin-10-yl)imino]-2,6-bis(pyrrolidin-1-ylmethyl)cyclohexa-2,5-dien-1-one]
[1]; Case 1
  most recent CBC and CMP results: within normal reference ranges
[1]; Case 1, hilar cholangiocarcinoma
  study-drug related adverse events: no reports of any study-drug related adverse events
[1]; Case 1, June 2019, start 20 Dec. 2018, expected survival 2-4 weeks
  survival status: still alive
[1]; Case 2, lung cancer stage IV
  study-drug related adverse events: no reports of study-drug related adverse events
[1]; Case 2, start 22 Jan. 2019
  survival status: passed away on 22 Feb. 2019
[1]; Case 3, ovarian cancer stage IV
  study-drug related adverse events: no reports of study-drug related adverse events
[1]; Case 3, start 15 Jan. 2019
  survival status: passed away on 29 Jan. 2019
[1]; Case 4, breast cancer stage IV, start 20 Jan. 2019
  survival status: passed away on 15 Feb. 2019
[1]; Case 5
  most recent CBC and CMP results: within normal reference ranges
[1]; Case 5, small cell lung cancer stage IV, cleared within a week
  study-drug related adverse events: irritation on the skin during the first week of treatment
[1]; Case 5, June 2019, start 29 Jan. 2019
  survival status: still alive
[1]; any patient, up to 500 or 600 mg daily
  maximum tolerated dose: not reached
[1]; five patients, 200-600 mg daily oral
  tolerability: well tolerated
CEM cell line
  selectivity (SCI): poor selectivity
HL-60 cells [2]
  mitochondrial depolarization (Δψm, JC-1): significant mitochondrial depolarization
MDA-MB-231 cells [3]
  mitochondrial depolarization (Δψm, JC-1): significant mitochondrial depolarization
HL-60 cells [4]
  selective cytotoxicity index (SCI): > 3
HL-60 cells [4]; Homo sapiens, 72 h, DNS assay
  CC50: 1900 nM
MDA-MB-231 cells [5]; CC50 of non-cancerous MCF-10A / CC50 of MDA-MB-231
  selective cytotoxicity index (SCI): 4.13
MDA-MB-231 cells [5]; Homo sapiens, MDA-MB-231, 72 h, DNS assay
  CC50: 1600 nM
[6]; HL-60
  selectivity ratio at 72 h: 3.5
[6]; MCF-7 cells against non-cancerous MCF-10A cells, vs MCF-10A
  selectivity ratio at 72 h: 4.13
[6]; MCF-10A non-cancerous cells
  CC50 at 72 h: 6600 nM
[6]; MDA-MB-231 LM2 cells against non-cancerous MCF-10A cells, vs MCF-10A
  selectivity ratio at 72 h: 2.54
[6]; MDA-MB-231 cells against non-cancerous MCF-10A cells, CC50 of non-cancerous MCF-10A / CC50 of MDA-MB-231
  selectivity ratio at 72 h: > 3
[6]; MDA-MB-468 cells against non-cancerous MCF-10A cells, vs MCF-10A
  selectivity ratio at 72 h: 3.88
[6]; T47D cells (against non-cancerous cells, line not specified)
  selectivity ratio at 72 h: < 1
[6]; HCC-70
  selectivity ratio at 72 h: < 1
[6]; Jurkat
  selectivity ratio at 72 h: 3.3
[6]; Ramos
  selectivity ratio at 72 h: 3
[6]; lung cancer line
  selectivity ratio at 72 h: < 2
[6]; melanoma cell line
  selectivity ratio at 72 h: 3.2
[6]; pancreatic cancer line
  selectivity ratio at 72 h: < 2
[6]; two of the three ovarian cancer lines
  selectivity ratio at 72 h: 3.9
